Assay results: US7767704B2, “Antiviral 4-aminocarbonylamino-substituted imidazole compounds” (AiCuris GmbH & Co. KG, priority 2004, dated 2010)

What was measured:
[1] = test system: HCMV; experiment: Anti-HCMV (anti-human cytomegalovirus) cytopathogenicity test; type: cell-based; conditions: Human betaherpesvirus 5, 144 h; HCMV-infected NHDF cells, M.O.I. 0.001-0.002, 6 days; inhibition of CPE by 50% vs untreated virus control
Description: (§1) Anti-HCMV (Anti-human Cytomegalovirus) Cytopathogenicity Tests
(§2) The test compounds are employed as 50 millimolar (mM) solutions in dimethyl sulphoxide (DMSO). Ganciclovir, foscarnet and cidofovir are used as reference compounds. After addition of in each case 2 μl of the 50, 5, 0.5 and 0.05 mM DMSO stock solutions to 98 μl portions of cell culture medium in row 2 A-H for duplicate determinations, 1:2 dilutions are carried out with 50 μl portions of medium up to row 11 of the 96-well plate. The wells in rows 1 and 12 each contain 50 μl of medium. 150 μl of a suspension of 1×10^4 cells (human prepuce fibroblasts [NHDF]) are pipetted into each of the wells (row 1=cell control) and, in rows 2-12, a mixture of HCMV-infected and uninfected NHDF cells (M.O.I.=0.001-0.002), i.e. 1-2 infected cells per 1000 uninfected cells. Row 12 (without substance) serves as virus control. The final test concentrations are 250-0.0005 μM. The plates are incubated at 37° C./5% CO2 for 6 days, i.e. until all the cells are infected in the virus controls (100% cytopathogenic effect [CPE]). The wells are then fixed and stained by adding a mixture of formalin and Giemsa's dye (30 minutes), washed with double-distilled water and dried in a drying oven at 50° C. The plates are then assessed visually using an overhead microscope (plaque multiplier from Technomara).
(§3) The following data can be acquired from the test plates: • CC50 (NHDF)=substance concentration in μM at which no visible cytostatic effects on the cells are evident by comparison with the untreated cell control; • EC50 (HCMV)=substance concentration in […] which inhibits the CPE (cytopathic effect) by 50% compared with the untreated virus control; • SI (selectivity index)=CC50 (NHDF)/EC50 (HCMV).

[2] = Cytostatic effect on NHDF cells in the anti-HCMV cytopathogenicity test; type: cell-based; conditions: NHDF cells (human prepuce fibroblasts), 6 days incubation, visual assessment, concentration at which no visible cytostatic effects are evident
Description: as §1, §2, §3

| SMILES | EC50 [1] | CC50 at 6 days [2] |
| --- | --- | --- |
| COc1ccc(C(C)NC(=O)c2nc(NC(=O)Nc3ccc(C)c(F)c3)cn2C)cn1 (stereo not shown) [Example 2, 4-({[(3-Fluoro-4-methylphenyl)amino]carbonyl}amino)-N-[1-(6-methoxypyridin-3-yl)ethyl]-1-methyl-1H-imidazole-2-carboxamide] | 0.5 nM | 94000 nM |
| Cc1cc(Cl)ccc1NC(=O)Nc1cn(CC2CC2)c(C(=O)NCCCN2CCOCC2)n1 [Example 3, 4-({[(4-Chloro-2-methylphenyl)amino]carbonyl}amino)-1-(cyclopropylmethyl)-N-(3-morpholin-4-ylpropyl)-1H-imidazole-2-carboxamide] | 3 nM | 25000 nM |
| Cc1cc(Cl)ccc1NC(=O)Nc1cn(CC2CC2)c(C(=O)NCCCn2cccn2)n1 [Example 11] | 1 nM | 25000 nM |
| COCCOCCCNC(=O)c1nc(NC(=O)Nc2ccc(Cl)cc2C)cn1CC=C(C)C [Example 25] | 1 nM | 6250 nM |
| COc1ccc(CNC(=O)c2nc(NC(=O)Nc3ccc(OC(F)(F)F)cc3)cn2CC2CC2)cc1 [Example 32] | 1 nM | 3130 nM |

Now from value to compound, other results behind:

| EC50 [1] | SMILES | CC50 at 6 days [2] |
| --- | --- | --- |
| 1.4 nM | O=C(Nc1ccc(OC(F)(F)F)cc1)Nc1cn(Cc2ccc(C(F)(F)F)cc2)c(C(=O)NCCO)n1 [Example 124, N-(2-Hydroxyethyl)-4-[({[4-(trifluoromethoxy)phenyl]amino}carbonyl)amino]-1-[4-(trifluoromethyl)benzyl]-1H-imidazole-2-carboxamide] | 9400 nM |
| 2.8 nM | O=C(Nc1ccc(OC(F)(F)F)cc1)Nc1cn(Cc2ccc(C(F)(F)F)cc2)c(C(=O)NCCOC(=O)CN2CCOCC2)n1 [Example 139] | 4700 nM |
| 1.9 nM | Cn1cc(NC(=O)Nc2ccc(OC(F)(F)F)cc2)nc1C(=O)NCCCC(F)(F)F [Example 152, 1-Methyl-N-(4,4,4-trifluorobutyl)-4-[({[4-(trifluoromethoxy)phenyl]amino}carbonyl)amino]-1H-imidazole-2-carboxamide] | 31000 nM |
